Results on seven compounds are retold here after patent US20110033938A1, “SYSTEM FOR INDUCIBLE GENE EXPRESSION IN CHLAMYDOMONAS” (priority 2008, published 2011).

One data set concerns Chlamydomonas growth. The following applies: for toxicity effects on Chlamydomonas growth: TAP medium; for effect on Chlamydomonas growth rate: all three growth media. From the text: (§1) In order to measure quantitatively the transcription of a gene sequence placed under the control of the Cyc6 promoter, we cloned downstream of this promoter the reporter gene cRLuc (Fuhrmann et al., 2004). This gene was also cloned downstream of the strong constitutive PsaD promoter (Fischer e Rochaix, 2001) obtaining the cassettes Cyc6:cRLuc and PsaD:cRLuc (FIG. 1A). Chlamydomonas cells were transformed with these cassettes according to Kindle (1990) and the transformed cells were inoculated in TAP growth medium (Harris, 1989) at a cell density of 10^6 cells/ml. 30 hours later, Ni2+ was added at a final concentration of 25, 50 and 75 μM and Luc activity was measured in the cellular lysates at different times after induction using the Luciferase Assay System (Promega, cat. E2820).
(§2) Ni2+ was added to cells transformed with the construct Cyc6:cRLuc (indicated as “transformed cells” from now on) and grown in TAP, TAP/ENEA1 and TAP/ENEA2 growth media. […] An ideal inducible gene system should be promptly reversible after the addition of an antagonist of the inducer, effective at micromolar concentrations.
(§3) Since the Cyc6 promoter is switched off by Cu2+, the use of chelators specific for that ion can be an alternative method for the reversible induction of this promoter. As an example, FIGS. 4A and 4B show, respectively, the Luc activity and the growth curves of cells transformed with the construct Cyc6:cRLuc grown in TAP/ENEA2 growth medium and induced with the chelators listed in Table 3. […] In the present invention, we propone an alternative method to the Ni2+/EDTA system: activation by Cu chelators, followed by reversion by Cu2+ addition. […] In these experiments, the Cyc6 promoter was induced by 2 μM TETA and repressed by 1 μM Cu2+ (FIG. 4D) and by 5 μM TETA and by 2 μM Cu2+ (FIG. 4E). At 88 hours from TETA addition, the culture in stationary phase was diluted 1:20 and after 30 hours (0 hours of the second cycle) TETA was added at concentrations of 2 (FIG. 4D) e 5 μM (FIG. 4E). At 16 hours Cu2+ was added at the concentration of 1 (FIG. 4D) and 2 μM (FIG. 4E). […] In the system described here, activation and repression of the promoter are obtained respectively by addition of an inducer and its antagonist. In none of the chemically regulated gene expression systems described to date, such an activation followed by repression has been described.
A: Schematic maps of the PsaD:cRLuc and Cyc6:cRLuc constructs B: Schematic maps of the Cyc6:Rb-int-1, Cyc6:Rb-int-2, Cyc6:Rb:int-3 constructs C: Growth curves in TAP medium after addition of different Ni concentrations D: Luc activity driven by PsaD and Cyc6 in TAP medium after addition of different Ni concentrations
A, C, E: Luc activity of Chlamydomonas cells transformed with the Cyc6:cRLuc construct in TAP, TAP/ENEA1 and TAP/ENEA2 growth media in the presence of 25 μM (A), 50 μM (C), 75 μM (E) Ni2+.

In data set [1] the test system is Cyc6 promoter. In kind it is cell-based, Chlamydomonas reinhardtii. The following applies: for Luc activity induction relative to PsaD: 75 μM Ni2+.
Description: as §1, §2, §3
A, C, E: Luc activity of Chlamydomonas cells transformed with the Cyc6:cRLuc construct in TAP, TAP/ENEA1 and TAP/ENEA2 growth media in the presence of 25 μM (A), 50 μM (C), 75 μM (E) Ni2+. B, D, F: Growth curves of the transformed cells grown in TAP, TAP/ENEA1 and TAP/ENEA2 growth media in the presence of different Ni2+ concentrations, 25 μM (B), 50 μM (D), 75 μM (F) Ni2+. For the composition of the different media, see Table 2.
(§4) A: Luc activity of cells transformed with Cyc6:cRLuc construct induced by the different chelators listed in Table 3 in TAP/ENEA2 growth medium. B: Growth curves in TAP/ENEA2 growth medium in the presence of different Cu-chelators.

Data set [2] concerns Cyc6 promoter. Put plainly: Reversibility of Cyc6 promoter induction (Luc activity) after addition of an antagonist (EDTA or Cu2+). In kind it is cell-based, Chlamydomonas reinhardtii.
Description: as §3, §4

Where two headings read alike, the source gives them in different places.

For `c1cnc2c(c1)ccc1cccnc12` [1.10 phenanthroline, 1,10-phenanthroline], the “toxicity on Chlamydomonas growth” value in the data set on Chlamydomonas growth (chelator 10 μM, TAP/ENEA2) was “toxic”.
`Cc1cc(-c2ccc(S(=O)(=O)O)cc2)c2ccc3c(-c4ccc(S(=O)(=O)O)cc4)cc(C)nc3c2n1` [BCS, bathocuproinedisulfonic acid]: the “activation of the Cyc6 promoter (Luc activity)” value (from here on “activation … (Luc activity)”) in the data set on Cyc6 promoter [1] (chelator 10 μM, TAP/ENEA2) is listed as “able to activate the Cyc6 promoter”.
`[Cu+2]` [Cu2+]: the “effect on Luc activity after TETA induction” value with Cyc6 promoter [2] (2 μM Cu2+ added 16 hours after chelator addition, TAP/ENEA2) is “represses Luc activity”. For the same compound, the “reversion of TETA induction by Cu2+” value in the data set on Cyc6 promoter [2] (micromolar Cu2+, TAP/ENEA2, FIG. 4C) is “can be reverted”.
Consider `O=C(O)CN(CCN(CC(=O)O)CC(=O)O)CC(=O)O` [EDTA], for which, in the data set with Cyc6 promoter [2] (EDTA 25, 50 and 150 μM added 16 hours after 25 or 50 μM Ni2+, TAP/ENEA2 and TAP), the “reversion of Cyc6 promoter activity (Luc) by EDTA” value is “only partially reverted”.
Consider `Cn1ccnc1CNC1CC(NCc2nccn2C)CC(NCc2nccn2C)C1` (stereo not drawn) [IM, 1,3,5-cis,cis,-triaminocyclohexane-N,N′,N″-tris-(2-methyl-(N-methylimidazole))], for which the “activation … (Luc activity)” value with Cyc6 promoter [1] (chelator 10 μM, TAP/ENEA2) is “able to activate the Cyc6 promoter”.
As for `[Ni+2]` [Ni2+], the entries for the “toxicity effects on Chlamydomonas growth” value in the data set on Chlamydomonas growth (25 μM Ni2+), in the data set on Chlamydomonas growth (50 μM Ni2+) and in the data set on Chlamydomonas growth (75 μM Ni2+) were “does not have toxic effects”, “toxicity effects” and “toxicity effects”, respectively. Further, in the data set on Chlamydomonas growth (25 μM Ni2+, all three growth media (TAP, TAP/ENEA1, TAP/ENEA2)), the “toxic effects on growth” value was “only minor toxic effects”. The “effect on Chlamydomonas growth rate” value with Chlamydomonas growth (50 μM Ni2+) and in the data set on Chlamydomonas growth (75 μM Ni2+) was “evident slowing down of Chlamydomonas growth rate” in each case. Further, in the data set on Cyc6 promoter [1] (25 μM Ni2+), the “Cyc6 promoter activity in TAP, TAP/ENEA1 and TAP/ENEA2” value is reported as “active only in TAP/ENEA2 growth medium”. Also, the “activation of the Cyc6 promoter” value in the data set with Cyc6 promoter [1] (25 μM Ni2+, TAP medium) was “not sufficient to activate the Cyc6 promoter”. Moreover, in the data set on Cyc6 promoter [1] (25 μM Ni2+, TAP/ENEA2), the “Cyc6 promoter activity relative to PsaD promoter” value was “same level of activity as the strong PsaD promoter”. In addition, in the data set with Cyc6 promoter [1] (50 μM Ni2+), the “increase of Cyc6 promoter activity in TAP/ENEA2 with respect to TAP medium” value was 25 times. For the same compound, the “Cyc6 promoter activity relative to PsaD” value in the data set on Cyc6 promoter [1] (50 μM Ni2+, TAP) is recorded as 1/10; in the data set with Cyc6 promoter [1] (50 μM Ni2+, TAP/ENEA1), “½”; in the data set with Cyc6 promoter [1] (50 μM Ni2+, TAP/ENEA2), 2.5 fold more than PsaD. Besides, the “Luc activity induction relative to PsaD” value in the data set on Cyc6 promoter [1] (TAP/ENEA1) and in the data set with Cyc6 promoter [1] (TAP/ENEA2) was “about two-fold” in each case. Besides, the “Luc activity after induction compared to PsaD promoter” value in the data set on Cyc6 promoter [1] (25, 50 and 75 μM Ni2+, TAP medium) is “low compared to the Luc activity driven by the PsaD promoter”.
Take `NCCNCCNCCN` [TETA, triethylentetramine]: in the data set on Cyc6 promoter [1], the “Cyc6 promoter activation in TAP/ENEA2 versus TAP” value is reported as “only in TAP/ENEA2 growth medium”, the “activation … (Luc activity)” value was “able to activate the Cyc6 promoter” and the “time course of Luc activity after chelator addition” value is recorded as “increases steadily until 48 hours”. Moreover, the “induction in a second growth cycle” value in the data set on Cyc6 promoter [2] is given as “a second induction is obtained”.
